PubChem BioAssay AID179 (DTP/NCI, 2004)
pEC50, pIC50: −log10 of the molar value. Calls of active or inactive are those of the source.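 How the source made its calls: active means compounds giving half or more protection of infected cells from virus-caused growth loss, again on retest; inactive means the rest.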

Test system: CEM cells HIV-1 protection, formazan growth assay
Assay: NCI AIDS Antiviral Assay
Conditions: for pIC50: measured here: growth of uninfected CEM cells
How it was run: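 Soluble formazan readout of cell growth; CEM cells ± HIV-1; 5 drug concs. ≥50% protection → retest; ≥50% again = moderately active; reproducible 100% = confirmed active.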

Structure (SMILES)	pEC50	pIC50	outcome
O=C(NNC(=O)c1cc(/C=C/c2cccc([N+](=O)[O-])c2)[nH]c(=S)n1)Nc1ccc(Cl)cc1	< 4.96	< 4.96	
Cc1c(CCO)c(=O)n2n1CCCC2	< 3.70	< 3.70	
Nc1nc2c(s1)CCC2	< 3.15	5.25	
COc1ccc(C2=Nn3c(nc4sc(-c5ccccc5)cc4c3=O)SC2)cc1	< 3.70	< 3.70	
COC(=O)C[C@](O)(CCC(C)(C)O)C(=O)O[C@@H]1C(OC)=C[C@]23CCCN2CCc2cc4c(cc2[C@H]13)OCO4			inactive
Cn1c(=O)c2c(-c3ccccc3)onc2n(C)c1=O	< 3.70	4.96	
C[Si](C)(C)C#C[I+]c1ccccc1			inactive
Cc1nc2ccccc2c(=O)n1-c1ccccc1Cl	< 3.74	3.83	
COC(=O)Oc1nn(C(=O)OC)c(=O)c2ccccc12	< 3.70	< 3.70	
O=[N+]([O-])CCc1cccc([N+](=O)[O-])c1	< 2.90	< 2.90	
COc1ccc(/C(Cl)=C(\C=N/O)c2ccc(OC)c(OC)c2)cc1OC	< 4.86	< 4.86	
O=C(O)c1ccc(-n2[se]c3ccccc3c2=O)cc1	5.14	4.69	
CSCCC(C(=O)O)N(CC1(O)OCC(O)C(O)C1O)N=O (stereo unspecified)			inactive
COc1ccc(N=NC(=O)NC(CC(C)C)C(=O)NC(C)C(=O)O)cc1 (stereo unspecified)	< 3.70	5.55	
CC(=O)Nc1ccc(/C=C(\C#N)c2ccc(C)cc2)cc1	< 3.70	< 3.70	
Cc1ccc(S(=O)(=O)N/N=C2/C3CCC(C3)C2c2ccccc2)cc1 (stereo unspecified)	< 3.70	< 3.70	
CCOP(=O)(OCC)/C(C#N)=C/c1ccc(OC)cc1	< 3.50	< 3.50	
Nc1ncnc2c1ncn2COC/C=C/I	< 3.69	3.81	
NC1Cc2ccccc2OC1=O (stereo unspecified)	< 3.70	< 3.70	
O=C(CCNC12CC3CC(CC(C3)C1)C2)c1ccccc1			inactive
COc1ccc(C(CC(=O)O)c2ccccc2)cc1 (stereo unspecified)	< 3.15	3.30	
CCOC(=O)/C(=C\c1cccc(Cl)c1)[Se]c1ccccc1	< 4.85	< 4.85	
O=C1c2c(O)cc(O)c(OC3OC(CO)C(O)C(O)C3O)c2OC(c2ccc(O)c(O)c2)C1O (stereo unspecified)	< 3.29	4.24	

Structure (SMILES)	pEC50	pIC50	outcome
C/C=C/COC(=O)CO[N+](=O)[O-]			inactive
CC1(C)CCC2=C(C1)Nc1ccc(Cl)cc1NC2c1ccc([N+](=O)[O-])cc1 (stereo unspecified)	< 3.70	4.61	
Cc1ccc(NC(=O)CSc2nnc(-c3ccc(N=Cc4ccc(Cl)cc4)cc3)o2)cc1	< 3.55	3.84	
CNn1c(-c2ccc(C)cc2)n[nH]c1=O	4.31	4.25	
c1ccc(SC(CCCCOC2CCCCO2)Sc2ccccc2)cc1 (stereo unspecified)			inactive
COc1ccc(CNc2nc3c(NC(C)=O)cc(C(F)(F)F)cc3nc2-c2ccccc2)cc1OC	< 4.98	< 4.98	
CCCCCCCCCCCCCCCCN1C(=O)/C(=C\c2ccc(O)cc2)SC1=Nc1ccccc1	< 4.35	< 4.35	
COC(=O)C(=O)C(C(=O)C(=O)Nc1ccccc1C(N)=O)c1nc2ccc(C(=O)c3ccccc3)cc2[nH]c1=O (stereo unspecified)	< 3.62	4.20	
O=C(CCCN1CC=C(n2c(=O)[nH]c3ccccc32)CC1)c1ccc(F)cc1	< 3.70	4.05	
N#C/C(=C/NC(=S)c1ccncc1)C(N)=O	< 3.70	< 3.70	
CC(C)=CCNc1ncnc2c1ncn2CCC(=O)O	< 3.70	< 3.70	
CN(C)N1C(=O)C(=O)N(c2cccc3ccccc23)C1=O	< 3.70	< 3.70	
O=C(OCCN1CCCCC1)C(c1ccccc1)C1(O)CCSCC1 (stereo unspecified)	< 3.70	< 3.70	
Nc1ccc2oc(=O)ccc2c1	< 2.90	5.05	
CCOC(=O)[C@H]1Nc2ccc(Cl)cc2[C@H]2OCC[C@@H]12	< 3.75	< 3.75	
N#Cc1ccccc1NC(=O)C(O)C(O)C(O)C(O)C=O (stereo unspecified)	< 3.70	< 3.70	
Cc1ccc2c(c1N)C(=O)c1ccccc1C2=O	< 3.70	3.91	
COc1ccc(NC(=O)c2c(NC(C)=O)c(C#N)c3n2CCC3)cc1	< 3.70	< 3.70	
COC(=O)CN1SC2(SC13C(C)(C)C(=O)C3(C)C)C(C)(C)C(=O)C2(C)C	< 3.70	4.30	
O=C1NC(O)c2cc(CO)ccc2O1 (stereo unspecified)	< 3.70	4.02	
CC1=NN2C(=N)/C(=C/c3ccc(F)cc3)C(=O)N=C2S1	< 3.70	< 3.70	
CCN(CC)CC[NH-].O=C([O-])C(=O)[O-].O=C([O-])C(=O)[O-].[Co+3].[K+]	< 3.70	3.83	
O=C(O)c1nc(Cl)c(Cl)[nH]c1=O	< 3.70	4.26	
